The values below come from patent US10214546B2, “Btk inhibitors” (MERCK SHARP & DOHME CORP., priority 2014, dated 2019).

pIC50: −log10 of the molar value. Where two headings read alike, the source gives them in different places.

Test [1] has as its target BTK enzyme (recombinant full-length BTK, hBTK) (Homo sapiens (Human), UniProt Q06187). Kind of test: BTK enzymatic activity LANCE TR-FRET assay. As to conditions: 50 pM hBTK, 25 μM ATP, 2 μM biotin-A5-peptide; compound range 1 μM to 0.017 nM; read-out: BTK binding IC50. The test is classed as biochemical. (In general: TR-FRET usually uses a lanthanide donor and a delayed reading to cut background.)

Test [2] has as its system adenosine uptake into HeLa cells. Kind of test: [3H]Adenosine uptake assay in HeLa cells. The test is classed as cell-based. The settings on record: [3H]adenosine accumulation in HeLa cells, compound range 10 μM to 0.032 nM, read-out: ADU inhibition IC50. The method, boiled down: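 IC50 came from a 4-parameter fit of counts per second over a ten-point, 1:3 titration (final 10 µM down to […]). Compound was applied 30 min at ambient temperature in HBSS/5% FBS before a 500 nM [3H]adenosine solution was added; uptake ran 60 min, read by Cytostar-T proximity scintillation.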

Sequence of BTK enzyme (recombinant full-length BTK, hBTK) (Q06187 whole entry): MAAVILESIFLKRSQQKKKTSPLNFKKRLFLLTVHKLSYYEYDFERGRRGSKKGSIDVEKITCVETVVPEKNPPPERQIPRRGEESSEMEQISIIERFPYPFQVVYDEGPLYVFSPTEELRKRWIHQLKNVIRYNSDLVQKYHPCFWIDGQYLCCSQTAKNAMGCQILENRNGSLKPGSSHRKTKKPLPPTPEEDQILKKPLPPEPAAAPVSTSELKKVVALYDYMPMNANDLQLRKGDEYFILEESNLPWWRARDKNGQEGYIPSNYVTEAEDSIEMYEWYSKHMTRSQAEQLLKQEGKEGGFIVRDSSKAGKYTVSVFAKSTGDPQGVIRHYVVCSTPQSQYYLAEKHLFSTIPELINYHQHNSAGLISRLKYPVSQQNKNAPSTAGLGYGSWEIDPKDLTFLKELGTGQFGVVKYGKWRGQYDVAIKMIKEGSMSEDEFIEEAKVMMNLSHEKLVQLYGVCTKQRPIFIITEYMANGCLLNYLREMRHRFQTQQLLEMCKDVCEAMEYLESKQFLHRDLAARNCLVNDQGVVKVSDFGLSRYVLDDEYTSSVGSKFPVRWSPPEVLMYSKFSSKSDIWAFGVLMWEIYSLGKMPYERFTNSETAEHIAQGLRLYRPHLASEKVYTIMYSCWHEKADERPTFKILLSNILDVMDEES

Turning to `CC(O)(c1cccc(C(F)F)c1)c1ccc(-c2nc([C@@H]3CC[C@H]4CCC(=O)N4C3)n3ccnc(N)c23)c(F)c1` (stereo partly drawn) [Example 192, (6R,8aS)-6-(8-amino-1-(4-{1-[3-(difluoromethyl)phenyl]-1-hydroxyethyl}-2-fluorophenyl)imidazo[1,5-a]pyrazin-3-yl]hexahydroindolizin-3(2H)-one], the pIC50 (as a rule, the negative decadic logarithm of the IC50, by convention in mol/L) in test [1] is 6.96; in test [2], 6.28.
Taken in the same sequence, the figures for `CC(O)(c1cccc(C(F)(F)F)c1)c1ccc(-c2nc([C@@H]3CC[C@H]4CCC(=O)N4C3)n3c(Cl)cnc(N)c23)c(F)c1` (stereo partly drawn) [Example 193, (6R,8aS)-6-[8-amino-5-chloro-1-(2-fluoro-4-{1-hydroxy-1-[3-(trifluoromethyl)phenyl]ethyl}phenyl)imidazo [1,5-a]pyrazin-3-yl]hexahydroindolizin-3(2H)-one] were 8.92 and 5.73.
For the molecule `CC(O)(c1cccc(C(F)(F)F)c1)c1ccc(-c2nc([C@@H]3CC[C@@H]4N(C3)C(=O)CC4(C)C)n3ccnc(N)c23)c(F)c1` (stereo partly drawn) [Example 194, (6R,8aS)-6-[8-amino-1-(2-fluoro-4-{1-hydroxy-1-[3-(trifluoromethyl)phenyl]ethyl}phenyl)imidazo [1,5-a]pyrazin-3-yl]-1,1-dimethylhexahydroindolizin-3(2H)-one], the results for the pIC50 in test [1] and in test [2] were 8.96 and 5.89, respectively.
The like results for `CC(O)(c1cccc(C(F)F)c1)c1ccc(-c2nc([C@@H]3CC[C@H]4CCC(=O)N4C3)n3ccnc(N)c23)c(F)c1` (stereo partly drawn) [Example 195] were, in that order, 9.48 and 5.46.
`CC1(C)C[C@@H]2CC[C@@H](c3nc(-c4ccc(C(C)(O)c5cccc(C(F)(F)F)c5)cc4F)c4c(N)nccn34)CN2C1=O` (stereo partly drawn) [Example 196, (6R,8aS)-6-[8-amino-1-(2-fluoro-4-{1-hydroxy-1-[3-(trifluoromethyl)pheyl]ethyl}phenyl)imidazo [1,5-a)pyrazin-3-yl]-2,2-dimethylhexahydroindolizin-3(2H)-one]: the values for the pIC50 in test [1] and in test [2] were 6.30 and 6.43, respectively.
As to `CC1(C)C[C@@H]2CC[C@@H](c3nc(-c4ccc(C(C)(O)c5cccc(C(F)(F)F)c5)cc4F)c4c(N)nccn34)CN2C1=O` (stereo partly drawn) [Example 197, (6R,8aS)-6-[8-amino-1-(2-fluoro-4-{1-hydroxy-1-[3-(trifluoromethyl)phenyl]ethyl}phenyl)imidazo [1,5-a]pyrazin-3-yl]-2,2-dimethylhexahydroindolizin-3(2H)-one], the results for the pIC50 in test [1] and in test [2] were 8.60 and 5.46, respectively.
For `CC1(C)C[C@@H]2CC[C@@H](c3nc(-c4ccc([C@@](C)(O)c5cccc(C(F)(F)F)c5)cc4)c4c(N)ncc(F)n34)CN2C1=O` [Example 198, (6R,8aS)-6-[8-amino-5-fluoro-1-(4-{(1R)-1-hydroxy-1-[3-(trifluoromethyl)phenyl]ethyl}phenyl)imidazo [1,5-a]pyrazin-3-yl]-2,2-dimethylhexahydroindolizin-3(2H)-one], the pIC50 in test [1] was 8.15; in test [2] (Homo sapiens, HeLa), 5.16.
As for `C[C@@](O)(c1ccc(-c2nc([C@@H]3CC[C@H]4CCC(=O)N4C3)n3c(F)cnc(N)c23)cc1)c1cccc(C(F)F)c1` [Example 199, (6R,8aS)-6-(8-amino-1-(4-{(1R)-1-[3-(difluoromethyl)phenyl]-1-hydroxyethyl}phenyl)-5-fluoroimidazo[1,5-a]pyrazin-3-yl]hexahydroindolizin-3(2H)-one], the pIC50 in test [1] is 9.18; in test [2] (Homo sapiens, HeLa), 5.35.
In the case of `CC(O)(c1cccc(C(F)F)c1)c1ccc(-c2nc([C@@H]3CC[C@@H]4N(C3)C(=O)CC4(C)C)n3ccnc(N)c23)c(F)c1` (stereo partly drawn) [Example 200, (6R,8aS)-6-[8-amino-1-(4-{1-[3-(difluoromethyl)phenyl]-1-hydroxyethyl}-2-fluorophenyl)imidazo[1,5-a]pyrazin-3-yl]-1,1-dimethylhexahydroindolizin-3(2H)-one], the values for the pIC50 in test [1] and in test [2] were 7.27 and 6.64, respectively.
Taken in the same sequence, the figures for `CC1(C)C[C@@H]2CC[C@@H](c3nc(-c4ccc(C(C)(O)c5cccc(C(F)F)c5)cc4F)c4c(N)nccn34)CN2C1=O` (stereo partly drawn) [Example 201, (6R,8aS)-6-[8-amino-1-(4-{1-[3-(difluoromethyl)phenyl]-1-hydroxyethyl}-2-fluorophenyl)imidazo[1,5-a]pyrazin-3-yl]-2,2-dimethylhexahydroindolizin-3(2H)-one] were 7.37 and 6.38.
For `CC(O)(c1cccc(C(F)F)c1)c1ccc(-c2nc([C@@H]3CC[C@@H]4N(C3)C(=O)CC4(C)C)n3ccnc(N)c23)c(F)c1` (stereo partly drawn) [Example 202, (6R,8aS)-6-(8-amino-1-(4-{1-[3-(difluoromethyl)phenyl]-1-hydroxyethyl}-2-fluorophenyl)imidazo[1,5-a]pyrazin-3-yl]-1,1-dimethylhexahydroindolizin-3(2H)-one], the values for the pIC50 in test [1] and in test [2] were 9.80 and 5.72, respectively.
Taken in the same sequence, the figures for `CC1(C)C[C@@H]2CC[C@@H](c3nc(-c4ccc(C(C)(O)c5cccc(C(F)F)c5)cc4F)c4c(N)nccn34)CN2C1=O` (stereo partly drawn) [Example 203, (6R,8aS)-6-[8-amino-1-(4-{1-[3-(difluoromethyl)phenyl]-1-hydroxyethyl}-2-fluorophenyl)imidazo[1,5-a]pyrazin-3-yl]-2,2-dimethylhexahydroindolizin-3(2H)-one] were 9.37 and 5.64.
Turning to `CCOc1cc([C@@](C)(O)c2cccc(C(F)(F)F)c2)ccc1-c1nc([C@@H]2CC[C@H]3CCC(=O)N3C2)n2c(F)cnc(N)c12` [Example 204, (6R,8aS)-6-[8-amino-1-(2-ethoxy-4-{(1S)-1-hydroxy-1-[3-(trifluoromethyl)phenyl]ethyl}phenyl)-5-fluoroimidazo[1,5-a]pyrazin-3-yl]hexahydroindolizin-3(2H)-one], the negative-log IC50 (pIC50) was 8.66 in test [1] and 5.23 in test [2] (Homo sapiens, HeLa).
With `COc1cc(C(C)(O)c2cccc(C(F)(F)F)c2)ccc1-c1nc([C@@H]2CC[C@@H]3N(C2)C(=O)CC3(C)C)n2ccnc(N)c12` (stereo partly drawn) [Example 205, (6R,8aS)-6-[8-amino-1-(4-{1-hydroxy-1-[3-(trifluoromethyl)phenyl]ethyl}-2-methoxyphenyl)imidazo [1,5-a]pyrazin-3-yl]-1,1-dimethylhexahydroindolizin-3(2H)-one], the pIC50 in test [1] is 8.70; in test [2] it was 5.46.
As for `COc1cc([C@@](C)(O)c2cccc(C(F)(F)F)c2)ccc1-c1nc([C@@H]2CC[C@H]3CC(C)(C)C(=O)N3C2)n2ccnc(N)c12` [Example 206, (6R,8aS)-6-[8-amino-1-(4-{(1S)-1-hydroxy-1-[3-(trifluoromethyl)phenyl]ethyl}-2-methoxyphenyl)imidazo [1,5-a]pyrazin-3-yl]-2,2-dimethylhexahydroindolizin-3(2H)-one], the pIC50 in test [1] was 8.42; in test [2] (Homo sapiens, HeLa), 5.26.
`CC(O)(c1cccc(C(F)F)c1)c1ccc(-c2nc([C@@H]3CC[C@H]4CCC(=O)N4C3)n3c(F)cnc(N)c23)c(F)c1` (stereo partly drawn) [Example 207, (6R,8aS)-6-[8-amino-1-(4-{1-[3-(difluoromethyl)phenyl]-1-hydroxyethyl}-2-fluorophenyl)-5-fluoroimidazo[1,5-a]pyrazin-3-yl]hexahydroindolizin-3(2H)-one]: the pIC50 in test [1] was 6.34; in test [2], 6.03.
The like results for `CC(O)(c1cccc(C(F)F)c1)c1ccc(-c2nc([C@@H]3CC[C@H]4CCC(=O)N4C3)n3c(F)cnc(N)c23)c(F)c1` (stereo partly drawn) [Example 208, (6R,8aS)-6-(8-amino-1-(4-{1-[3-(difluoromethyl)phenyl]-1-hydroxyethyl}-2-fluorophenyl)-5-fluoroimidazo[1,5-a]pyrazin-3-yl]hexahydroindolizin-3(2H)-one] were, in that order, 8.80 and 5.27.
With `COc1cc(C(C)(O)c2cccc(C(F)(F)F)c2)ccc1-c1nc([C@@H]2CC[C@@H]3N(C2)C(=O)CC3(C)C)n2ccnc(N)c12` (stereo partly drawn) [Example 209, (6R,8aS)-6-[8-amino-1-(4-{1-hydroxy-1-[3-(trifluoromethyl)phenyl]ethyl}-2-methoxyphenyl)imidazo [1,5-a]pyrazin-3-yl]-1,1-dimethylhexahydroindolizin-3(2H)-one], the figures for the pIC50 in test [1] and in test [2] were 7.59 and 5.95, respectively.
Taken in the same sequence, the figures for `COc1cc(C(O)(c2cccc(C(F)F)c2)C(F)(F)F)ccc1-c1nc([C@@H]2CC[C@H]3CCC(=O)N3C2)n2ccnc(N)c12` (stereo partly drawn) [Example 210, (6R,8aS)-6-[8-amino-1-(4-{1-[3-(difluoromethyl)phenyl]-2,2,2-trifluoro-1-hydroxyethyl}-2-methoxyphenyl)imidazo [1,5-a]pyrazin-3-yl]hexahydroindolizin-3(2H)-one] were 7.17 and 5.57.
Take `COc1cc(C(O)(c2cccc(C(F)F)c2)C(F)(F)F)ccc1-c1nc([C@@H]2CC[C@H]3CCC(=O)N3C2)n2ccnc(N)c12` (stereo partly drawn) [Example 211, (6R,8aS)-6-[8-amino-1-(4-{1-[3-(difluoromethyl)phenyl]-2,2,2-trifluoro-1-hydroxyethyl}-2-methoxyphenyl)imidazo [1,5-a]pyrazin-3-yl]hexahydroindolizin-3(2H)-one]: the negative logarithm of the IC50 (pIC50) in test [1] was 9.22; in test [2], 5.15.
Consider `CCOc1cc([C@@](C)(O)c2cccc(C(F)(F)F)c2)cc(F)c1-c1nc([C@@H]2CC[C@H]3CCC(=O)N3C2)n2ccnc(N)c12` [Example 212, (6R,8aS)-6-[8-amino-1-(2-ethoxy-6-fluoro-4-{(1S)-1-hydroxy-1-[3-(trifluoromethyl)phenyl]ethyl}phenyl)imidazo [1,5-a]pyrazin-3-yl]hexahydroindolizin-3(2H)-one], for which the negative logarithm of the IC50 (pIC50) is 6.48 in test [1] and 5.45 in test [2] (Homo sapiens, HeLa).
